Experimental data reported in patent US12559474B2, “Triazine derivatives having virus replication inhibitory activity and pharmaceutical composition comprising the same” (priority 2021, dated 2026).
Read-outs that look alike come from different tables or passages of the source.

Experiments:
[1] = target: SARS-CoV-2 3CL protease (Severe acute respiratory syndrome coronavirus 2, UniProt P0DTD1); assay: biochemical; settings: 50% SARS-CoV-2 3CL protease inhibitory concentration, read-out: IC50
[2] = test system: SARS-CoV-2; assay: microbe, parasite or virus in culture; type: cell-based; settings: 50% SARS-CoV-2 infected cell death inhibitory concentration, VeroE6/TMPRSS2 cells, 3 days culture
[3] = Severe acute respiratory syndrome coronavirus 2, VeroE6/TMPRSS2, 72 h, class symbols
[4] = Severe acute respiratory syndrome coronavirus 2, VeroE6/TMPRSS2, 72 h, CellTiter-Glo 2.0

## COc1cncc(-n2c(=O)nc(Nc3cc4cn(C)nc4cc3Cl)n(Cc3ccc(F)c(C#N)c3)c2=O)c1 [II-0578]
[1]; given as class symbols
  IC50: < 100 nM
[2]; [3]
  EC50: 1000 to 10000 nM

## O=c1[nH]cccc1Cn1c(=O)nc(Nc2cc3c(cc2Cl)OCC3)n(Cc2cc(F)c(F)cc2F)c1=O [Compound I-0016]
[1]; given as class symbols
  IC50: < 100 nM
[2]; [3]
  EC50: < 1000 nM

## Cc1nc2ccc(Nc3nc(=O)n(-c4cncc5ccccc45)c(=O)n3Cc3ccc(F)c(C#N)c3)cc2o1 [II-0176]
[1]; given as class symbols
  IC50: < 100 nM
[2]; [3]
  EC50: < 1000 nM

## Cc1cncc(-n2c(=O)nc(Nc3cc4sc(NCC(F)F)nc4cc3F)n(Cc3ccc(F)c(C#N)c3)c2=O)c1 [II-0424]
[1]; given as class symbols
  IC50: < 100 nM
[2]; [3]
  EC50: 1000 to 10000 nM

## Cc1c2cc(Nc3nc(=O)n(Cc4ncn(C)n4)c(=O)n3Cc3cc(F)c(F)cc3F)c(Cl)cc2nn1C [II-0450]
[1]; given as class symbols
  IC50: < 100 nM
[2]; [3]
  EC50: 1000 to 10000 nM

## CNc1nc2cc(Cl)c(Nc3nc(=O)n(-c4cncc(C)c4)c(=O)n3Cc3ccc(F)c(C#N)c3)cc2o1 [II-0512]
[1]; given as class symbols
  IC50: < 100 nM
[2]; [3]
  EC50: 1000 to 10000 nM

## Cc1cc(Cn2cc3cc(Nc4nc(=O)n(Cc5ccc[nH]c5=O)c(=O)n4Cc4cc(F)c(F)c(F)c4)c(Cl)cc3n2)no1 [II-0348]
[1]; given as class symbols
  IC50: < 100 nM
[2]; [3]
  EC50: 1000 to 10000 nM

## CC(=O)Nc1nc2cc(Cl)c(Nc3nc(=O)n(-c4cncc(C)c4)c(=O)n3Cc3ccc(F)c(C#N)c3)cc2s1 [II-0555]
[1]; given as class symbols
  IC50: < 100 nM
[2]; [3]
  EC50: 1000 to 10000 nM

## Cc1nc2cc(Cl)c(Nc3nc(=O)n(Cc4ncn(C)n4)c(=O)n3Cc3cc(F)c(F)cc3F)cc2o1 [II-0326]
[1]; given as class symbols
  IC50: < 100 nM
[2]; [3]
  EC50: 1000 to 10000 nM

## CNc1nc2ccc(Nc3nc(=O)n(-c4cncc(C)c4)c(=O)n3Cc3cc(F)c(F)c(F)c3)cc2s1 [II-0323]
[1]; given as class symbols
  IC50: < 100 nM
[2]; [3]
  EC50: < 1000 nM

## CNc1nc2cc(Cl)c(Nc3nc(=O)n(Cc4ncn(C)n4)c(=O)n3Cc3cc(F)c(F)cc3F)cc2o1 [II-0517]
[1]; given as class symbols
  IC50: < 100 nM
[2]; [3]
  EC50: 1000 to 10000 nM

## CCn1cc2cc(Nc3nc(=O)n(-c4cncc(Cl)c4)c(=O)n3Cc3cc(C#N)c(F)cn3)c(Cl)cc2n1 [II-0127]
[1]; given as class symbols
  IC50: < 100 nM
[2]; [3]
  EC50: 1000 to 10000 nM

## Cc1cncc(-n2c(=O)nc(Nc3cc4cn(C)nc4cc3Cl)n(Cc3cc(Cl)c(F)cc3C)c2=O)c1 [II-0043]
[1]; RapidFire MS
  IC50: 5.8 nM
[2]; [4]
  EC50: 232 nM

## COc1ccc(Nc2nc(=O)n(Cc3ccc[nH]c3=O)c(=O)n2Cc2cc(F)c(F)c(F)c2)cc1 [Compound I-0020]
[1]; given as class symbols
  IC50: < 100 nM
[2]; [3]
  EC50: 1000 to 10000 nM

## Cc1cncc(-n2c(=O)nc(Nc3cc4cn(C5COC5)nc4cc3Cl)n(Cc3ccc(F)c(C#N)c3)c2=O)c1 [II-0158]
[1]; given as class symbols
  IC50: < 100 nM
[2]; [3]
  EC50: 1000 to 10000 nM

## O=c1[nH]cccc1Cn1c(=O)nc(N2CC3(CCC3)C2)n(Cc2cc(F)c(F)c(F)c2)c1=O [II-0226]
[1]; RapidFire MS
  IC50: 130 nM
[2]; [4]
  EC50: 2770 nM

## Cn1ccc(-c2ccnc(Cn3c(=O)nc(Nc4cc5cn(C)nc5cc4Cl)n(Cc4cc(F)c(F)cc4F)c3=O)n2)n1 [II-0250]
[1]; given as class symbols
  IC50: < 100 nM
[2]; [3]
  EC50: 1000 to 10000 nM

## Cn1cc(-c2ccnc(Cn3c(=O)nc(Nc4cc5cn(C)nc5cc4Cl)n(Cc4cc(F)c(F)cc4F)c3=O)c2)cn1 [II-0254]
[1]; given as class symbols
  IC50: < 100 nM
[2]; [3]
  EC50: 1000 to 10000 nM

## CC(C)(O)Cn1cc2cc(Nc3nc(=O)n(Cc4ccc[nH]c4=O)c(=O)n3Cc3cc(F)c(F)c(F)c3)c(Cl)cc2n1 [Compound I-0447]
[1]; given as class symbols
  IC50: < 100 nM
[2]; [3]
  EC50: 1000 to 10000 nM

## Cn1cc2cc(Nc3nc(=O)n(-c4cncc5c4COC5)c(=O)n3Cc3cc(Cl)c(F)cc3F)c(Cl)cc2n1 [II-0499]
[1]; RapidFire MS
  IC50: 12 nM
[2]; [4]
  EC50: 680 nM

## CCc1nc2cc(Cl)c(Nc3nc(=O)n(Cc4ncn(C)n4)c(=O)n3Cc3cc(Cl)c(F)cc3F)cc2s1 [II-0260]
[1]; given as class symbols
  IC50: < 100 nM
[2]; [3]
  EC50: < 1000 nM

## Cn1cnc(Cn2c(=O)nc(Nc3cc4cn(C)nc4cc3F)n(Cc3cc(F)c(F)cc3F)c2=O)n1 [II-0519]
[1]; given as class symbols
  IC50: < 100 nM
[2]; [3]
  EC50: 1000 to 10000 nM

## Cc1cncc(-n2c(=O)nc(Nc3cc4sc(NCC(F)F)nc4cc3F)n(Cc3cc(F)c(F)c(C#N)c3)c2=O)c1 [II-0423]
[1]; given as class symbols
  IC50: < 100 nM
[2]; [3]
  EC50: 1000 to 10000 nM

## Cc1cncc(-n2c(=O)nc(Nc3cc4cn(C)nc4cc3Cl)n(Cc3cc(C#N)ccc3F)c2=O)c1 [II-0301]
[1]; given as class symbols
  IC50: < 100 nM
[2]; [3]
  EC50: < 1000 nM

## CNc1nc2cc(Cl)c(Nc3nc(=O)n(Cc4ncn(C)n4)c(=O)n3Cc3cc(Cl)c(F)cc3F)cc2o1 [II-0104]
[1]; given as class symbols
  IC50: < 100 nM
[2]; [3]
  EC50: 1000 to 10000 nM

## Cc1cncc(-n2c(=O)nc(Nc3cc4cn(C)nc4cc3Cl)n(Cc3cc(F)c(F)cc3Cc3cnn(C)c3)c2=O)c1 [II-0018]
[1]; given as class symbols
  IC50: < 100 nM
[2]; [3]
  EC50: 1000 to 10000 nM

## Cc1nc2cc(Cl)c(Nc3nc(=O)n(Cc4ncn(C)n4)c(=O)n3Cc3cc(F)c(F)c(F)c3)cc2n1C [Compound I-0422]
[1]; given as class symbols
  IC50: < 100 nM
[2]; [3]
  EC50: 1000 to 10000 nM

## Cn1cc2cc(Nc3nc(=O)n(-c4cncc(N)c4)c(=O)n3Cc3cc(F)c(F)cc3F)c(Cl)cc2n1 [II-0386]
[1]; given as class symbols
  IC50: < 100 nM
[2]; [3]
  EC50: 1000 to 10000 nM

## CNc1nc2cc(F)c(Nc3nc(=O)n(-c4cncc(C)c4)c(=O)n3Cc3cc(C#N)ccc3Cl)cc2s1 [II-0292]
[1]; RapidFire MS
  IC50: 3.9 nM
[2]; [4]
  EC50: 434 nM

## Cc1cncc(-n2c(=O)nc(Nc3cc4cn(CC(F)(F)F)nc4cc3Cl)n(Cc3cc(F)c(F)c(F)c3)c2=O)c1 [II-0564]
[1]; given as class symbols
  IC50: < 100 nM
[2]; [3]
  EC50: < 1000 nM

## Cc1cncc(-n2c(=O)nc(Nc3ccc4nn(CC(F)F)cc4c3)n(Cc3ccc(F)c(C#N)c3)c2=O)c1 [Compound I-0355]
[1]; given as class symbols
  IC50: < 100 nM
[1]; RapidFire MS
  IC50: 8.7 nM
[2]; [4]
  EC50: 339 nM
[2]; [3]
  EC50: < 1000 nM

## Cn1cnc(Cn2c(=O)nc(Nc3cc4cn(CC(=O)N5CCOCC5)nc4cc3Cl)n(Cc3cc(Cl)c(F)cc3F)c2=O)n1 [II-0132]
[1]; RapidFire MS
  IC50: 2.5 nM
[2]; [4]
  EC50: 49800 nM

## COc1ccc(Nc2nc(=O)n(-c3cncc(C)c3)c(=O)n2Cc2ccc(F)c(C#N)c2)c(Cl)c1 [II-0165]
[1]; given as class symbols
  IC50: < 100 nM
[2]; [3]
  EC50: < 1000 nM

## COc1ccc(Nc2nc(=O)n(Cc3cscn3)c(=O)n2Cc2cc(F)c(F)c(F)c2)cc1 [II-0258]
[1]; RapidFire MS
  IC50: 950 nM
[2]; [4]
  EC50: 7870 nM

## Cc1cncc(-n2c(=O)nc(Nc3cc4c(cc3Cl)OC(C)C4)n(Cc3ccc(F)c(C#N)c3)c2=O)c1 (centres unmarked) [II-0117]
[1]; given as class symbols
  IC50: < 100 nM
[2]; class symbols
  EC50: < 1000 nM

## Cc1cncc(-n2c(=O)nc(Nc3ccc4nn(CC(F)(F)F)cc4c3)n(Cc3ccc(F)c(C#N)c3)c2=O)c1 [II-0567]
[1]; RapidFire MS
  IC50: 8.8 nM
[2]; [4]
  EC50: 650 nM

## CNc1nc2cc(Cl)c(Nc3nc(=O)n(-c4cncc(C)c4)c(=O)n3Cc3cc(Cl)c(F)cn3)cc2s1 [II-0589]
[1]; given as class symbols
  IC50: < 100 nM
[2]; [3]
  EC50: 1000 to 10000 nM

## O=c1[nH]cccc1Cn1c(=O)nc(Nc2cc3cccnc3cc2Cl)n(Cc2cc(F)c(F)c(F)c2)c1=O [Compound I-0279]
[1]; given as class symbols
  IC50: < 100 nM
[2]; [3]
  EC50: 1000 to 10000 nM

## COc1ccc(Nc2nc(=O)n(Cc3cc(Cl)c[nH]c3=O)c(=O)n2Cc2cc(F)c(F)c(F)c2)cc1 [Compound I-0069]
[1]; given as class symbols
  IC50: < 100 nM
[2]; [3]
  EC50: 1000 to 10000 nM

## O=c1[nH]cccc1Cn1c(=O)nc(Nc2ccc(O)cc2Cl)n(Cc2cc(F)c(F)c(F)c2)c1=O [Compound I-0330]
[1]; given as class symbols
  IC50: < 100 nM
[2]; [3]
  EC50: 1000 to 10000 nM

## COc1ccc(Nc2nc(=O)n(-c3cncc(C)c3)c(=O)n2Cc2cc(F)c(F)c(F)c2)cc1 [Compound I-0374]
[1]; given as class symbols
  IC50: < 100 nM
[2]; [3]
  EC50: 1000 to 10000 nM

## Cc1cncc(-n2c(=O)nc(Nc3cc4cn(CCO)nc4cc3Cl)n(Cc3ccc(F)c(C#N)c3)c2=O)c1 [II-0140]
[1]; given as class symbols
  IC50: < 100 nM
[2]; [3]
  EC50: 1000 to 10000 nM

## O=c1[nH]cccc1Cn1c(=O)nc(Nc2cc3ccnn3cc2Cl)n(Cc2cc(F)c(F)c(F)c2)c1=O [Compound I-0247]
[1]; RapidFire MS
  IC50: 25 nM
[2]; [4]
  EC50: 3540 nM
[2]; [3]
  EC50: 1000 to 10000 nM
